This passage reports EC50 results from patent publication US8147818B2, “Hepatitis C virus inhibitors” (Bristol-Myers Squibb Company, priority 2008, dated 2012).

Like-named read-outs stand apart in the source and are kept apart here.

The subject of the assay is HCV 1b-377-neo replicon cells. Kind of assay: HCV Replicon assay, HCV 1b-377-neo replicon cells. The assay is classed as cell-based, HCV 1b genotype. The note with it: Hepatitis C virus. In a few lines: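 Compounds were tested in HCV genotype 1b-377-neo replicon cells by a replicon assay. They were also tested in replicon cells resistant to compound A carrying the NS5A Y2065H mutation.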
For orientation: In antiviral work, replicon cells carry a viral genome segment that copies itself.

[1] abbreviates: read-out: EC50 against HCV 1b (Activity or Range), range class.
Where [2] appears, read: read-out: EC50 against HCV 1b (Activity or Range).

In the case of `COC(=O)N[C@H](C(=O)N1CCC[C@H]1c1ncc(-c2ccc(-c3ccc4c(c3)CCCc3[nH]c([C@@H]5CCCN5C(=O)[C@@H](NC(=O)OC)[C@@H](C)OC)nc3-4)cc2F)[nH]1)[C@H](C)OC` [Example 22g.3], under setting [1], the EC50 was in the range of 0.001 to 0.1 nM.

Take `COC(=O)N[C@H](C(=O)N1CCC[C@H]1c1ncc(-c2ccc(-c3ccc4c(c3)CCc3[nH]c([C@@H]5CC(F)(F)CN5C(=O)[C@@H](NC(=O)OC)C(C)C)nc3-4)cc2)[nH]1)C(C)C` [Example 22t.1]: the EC50 under setting [1] lay within 0.001 to 0.1 nM.

In the case of `COC(=O)N[C@H](C(=O)N1CCC[C@H]1c1ncc(-c2ccc(-c3ccc4c(ccc5[nH]c([C@@H]6CCCN6C(=O)[C@@H](NC(=O)OC)[C@@H](C)OC)nc54)c3)cc2)[nH]1)[C@H](C)OC` [Example 22u.b], the EC50 under setting [1] fell in the range of 0.001 to 0.1 nM.

Regarding `CCN(CC)[C@@H](C(=O)N1CCC[C@H]1c1nc2c(ccc3cc(-c4ccc5c(ccc6nc([C@@H]7CCCN7C(=O)[C@@H](NC(=O)OC)C(C)C)[nH]c65)c4)ccc32)[nH]1)c1ccccc1` [Example 24.1], the EC50 under setting [1] fell in the range of 0.001 to 0.1 nM.

In the case of `COC(=O)N[C@H](C(=O)N1[C@@H]2C[C@@H]2C[C@H]1c1nc2c([nH]1)CCc1cc(-c3ccc(-c4[nH]c([C@@H]5C[C@H]6C[C@H]6N5C(=O)[C@@H](NC(=O)OC)C(C)C)nc4CC(F)(F)F)cc3)ccc1-2)C(C)C` [Example 22r.3], under setting [2], the EC50 was 0.003 nM.

Consider `COC(=O)N[C@H](C(=O)N1CCC[C@H]1c1ncc(-c2ccc(-c3ccc4c(ccc5[nH]c([C@@H]6CC(F)(F)CN6C(=O)[C@@H](NC(=O)OC)C(C)C)nc54)c3)cc2)[nH]1)C(C)C` [Example 22w.1], for which the EC50 under setting [1] lay in the range of 0.001 to 0.1 nM.

In the case of `COC(=O)N[C@H](C(=O)N[C@@H](C)c1ncc(-c2ccc(-c3ccc4c(c3)CCCc3[nH]c([C@H](C)NC(=O)[C@@H](NC(=O)OC)C(C)C)nc3-4)cc2)[nH]1)C(C)C` [Example 22d], the EC50 under setting [1] was in the range of 0.001 to 0.1 nM.

Take `COC(=O)N[C@@H](C(=O)N(C)[C@@H](C)c1nc2c([nH]1)CCOc1cc(-c3ccc(-c4cnc([C@@H]5CCCN5C(=O)[C@H](NC(=O)OC)c5ccccc5)[nH]4)cc3)ccc1-2)c1ccccc1` [Example 22b.3]: the EC50 under setting [1] was 0.001 to 0.1 nM.

Consider `COC(=O)N[C@H](C(=O)N1CCC[C@H]1c1ncc(-c2ccc(-c3ccc4c(c3)CCCc3[nH]c([C@@H]5CCCN5C(=O)[C@@H](NC(=O)OC)C(C)C)nc3-4)cc2)[nH]1)C(C)C` [Example 22], for which, under setting [2], the EC50 came to 0.005 nM.

As for `COC(=O)N[C@@H](C)C(=O)N1CCC[C@H]1c1ncc(-c2ccc(-c3ccc4c(c3)CCCc3[nH]c([C@@H]5CCCN5C(=O)[C@H](C)NC(=O)OC)nc3-4)cc2)[nH]1` [Example 22.2], the EC50 under setting [1] was 0.001 to 0.1 nM.

With `COC(=O)N[C@H](C(=O)N1[C@@H]2C[C@@H]2C[C@H]1c1nc2c([nH]1)CCc1cc(-c3ccc4c(c3)CCc3[nH]c([C@@H]5C[C@H]6C[C@H]6N5C(=O)[C@@H](NC(=O)OC)C(C)C)nc3-4)ccc1-2)C(C)C` [Example 22r.5], under setting [1], the EC50 lay in the range of 0.001 to 0.1 nM.

With `CCN(CC)[C@@H](C(=O)N1CCC[C@H]1c1ncc(-c2ccc(-c3ccc4c(c3)CCc3[nH]c([C@@H]5CCCN5C(=O)[C@@H](c5ccccc5)N(CC)CC)nc3-4)cc2F)[nH]1)c1ccccc1` [Example 22s.a], the EC50 under setting [1] was in the range of 0.001 to 0.1 nM.

As for `COC(=O)N[C@H](C(=O)N1CCC[C@H]1c1ncc(-c2cccc(-c3ccc4c(c3)-c3nc([C@@H]5CCCN5C(=O)[C@@H](NC(=O)OC)C(C)C)[nH]c3CCC4)c2)[nH]1)C(C)C` [Example 22j], the 50% effective concentration (EC50) under setting [2] is 14 nM.

In the case of `COC(=O)N[C@H](C(=O)N1CC(F)(F)C[C@H]1c1ncc(-c2ccc(-c3ccc4c(c3)CCc3[nH]c([C@@H]5CCCN5C(=O)[C@@H](NC(=O)OC)C(C)C)nc3-4)cc2)[nH]1)C(C)C` [Example 22t], the EC50 under setting [2] stood at 0.001 nM.

With `CCN(CC)[C@@H](C(=O)N1CCC[C@H]1c1ncc(-c2ccc(-c3ccc4c(c3)CCc3[nH]c([C@@H]5CCCN5C(=O)[C@@H](c5ccccc5)N(CC)CC)nc3-4)cc2)[nH]1)c1ccccc1` [Example 22r.a], the EC50 under setting [1] was 0.001 to 0.1 nM.

Turning to `COC(=O)N[C@H](C(=O)N1CCC[C@H]1c1ncc(-c2ccc(-c3ccc4c(c3)CCc3[nH]c([C@@H]5CCCN5C(=O)[C@@H](NC(=O)OC)[C@@H](C)OC)nc3-4)cc2F)[nH]1)[C@H](C)OC` [Example 22s.c], the EC50 under setting [2] is 0.02 nM.

`COC(=O)N[C@H](C(=O)N1CCC[C@H]1c1ncc(-c2ccc(-c3ccc4c(ccc5[nH]c([C@@H]6CCCN6C(=O)[C@@H](NC(=O)OC)C(C)C)nc54)c3)cc2F)[nH]1)C(C)C` [Example 22v]: under setting [1], the EC50 was 0.001 to 0.1 nM.

On to `CCN(CC)[C@@H](C(=O)N1CCC[C@H]1c1ncc(-c2ccc(-c3ccc4c(c3)CCCCc3c-4nc([C@@H]4CCCN4C(=O)[C@@H](c4ccccc4)N(CC)CC)n3O)cc2)[nH]1)c1ccccc1` [Example 22q.1], for which, under setting [1], the concentration giving a half-maximal response (EC50) lay within 0.001 to 0.1 nM.

Turning to `COC(=O)N[C@@H](C(=O)N1CCC[C@H]1c1ncc(-c2ccc(-c3ccc4c(c3)CCCc3[nH]c([C@@H]5CCCN5C(=O)[C@H](NC(=O)OC)c5ccccc5)nc3-4)cc2)[nH]1)c1ccccc1` [Example 22.3], the EC50 under setting [1] lay within 0.001 to 0.1 nM.

Regarding `CCN(CC)[C@@H](C(=O)N1CCC[C@H]1c1ncc(-c2ccc(-c3ccc4c(c3)CCCc3[nH]c([C@@H]5CCCN5C(=O)[C@@H](c5ccccc5)N(CC)CC)nc3-4)cc2)[nH]1)c1ccccc1` [Example 22.1], under setting [1], the EC50 was 0.001 to 0.1 nM.

For the compound `COC(=O)N[C@@H](C(=O)N1[C@@H]2C[C@@H]2C[C@H]1c1ncc(-c2ccc(-c3ccc4c(ccc5[nH]c([C@@H]6C[C@H]7C[C@H]7N6C(=O)[C@H](NC(=O)OC)c6ccccc6)nc54)c3)cc2F)[nH]1)c1ccccc1` [Example 22v.1b], the EC50 under setting [1] fell in the range of 0.001 to 0.1 nM.

Regarding `COC(=O)N[C@H](C(=O)N1CCC[C@H]1c1ncc(-c2ccc(-c3ccc4c(c3)CCCCc3[nH]c([C@@H]5CCCN5C(=O)[C@@H](NC(=O)OC)C(C)C)nc3-4)cc2)[nH]1)C(C)C` [Example 22x.1], under setting [1], the EC50 fell in the range of 0.001 to 0.1 nM.

On to `CCN(CC)[C@@H](C(=O)N1CCC[C@H]1c1ncc(-c2ccc(-c3ccc4c(ccc5[nH]c([C@@H]6CCCN6C(=O)[C@@H](c6ccccc6)N(CC)CC)nc54)c3)cc2F)[nH]1)c1ccccc1` [Example 22v.a], for which the EC50 under setting [1] was in the range of 0.101 to 0.999 nM.

In general, EC50 refers to the concentration at which the effect is half-maximal.
